US20260365642A1, “ANTIPARASITIC COMPOUNDS” (Animol Discovery, Inc., priority 2023, published 2026)

Each compound was assayed on Dirofilaria immitis L1 larvae (assay: Screening against microfilaria (L1 larvae) of Dirofilaria immitis, survival/motility). Conditions: 72 h, read-out: Ranked D. immitis L1 MED Activity.
Assay type: in vivo
Method: Example 44. Screening of Compounds Against Microfilaria of Dirofilaria immitis
To evaluate the efficacy of compounds of the disclosure against Dirofilaria immitis, L1 stage larvae were exposed to various concentrations of the compounds to determine survival or paralysis of the larvae. Results are reported as the minimum effective dose (MED), defined as the concentration required to eliminate motility.
To perform the assay, microfilaria of Dirofilaria immitis were added to the wells of a microtiter plate containing buffer and the test compounds in DMSO. Microfilaria exposed to DMSO alone served as controls. An assessment was conducted at 72 hours to determine survival of the microfilaria.
CN(CC1CN(S(C)(=O)=O)CCO1)c1cc(N2CCOC3(CCCCC3)C2)nc(C(F)(F)F)n1 (racemic) [Compound 4, (R) and (S)-N-methyl-N-((4-(methylsulfonyl)morpholin-2-yl)methyl)-6-(1-oxa-4-azaspiro[5.5]undecan-4-yl)-2-(trifluoromethyl)pyrimidin-4-amine] gave a minimal effective concentration of less than 30000 µM.
In the case of CS(=O)(=O)N1CCOC2CN(c3cc(N4CCOC5(CCCCC5)C4)nc(C(F)(F)F)n3)CCC21 (stereo not shown) [Compound 34, 4-(6-(1-(methylsulfonyl)octahydro-6H-pyrido[3,4-b][1,4]oxazin-6-yl)-2-(trifluoromethyl)pyrimidin-4-yl)-1-oxa-4-azaspiro[5.5]undecane], the minimal effective concentration is reported as less than 30000 µM.
Compound CCS(=O)(=O)N1CCOC(CN(C)c2cc(N3CCOC4(CCCCC4)C3)nc(C(F)(F)F)n2)C1 (stereo not shown) [Compound 33, N-((4-(ethylsulfonyl)morpholin-2-yl)methyl)-N-methyl-6-(1-oxa-4-azaspiro[5.5]undecan-4-yl)-2-(trifluoromethyl)pyrimidin-4-amine] has a minimal effective concentration of less than 10000 µM.
With CN(CC1CN(S(C)(=O)=O)CCS1(=O)=O)c1cc(N2CCOC3(CCCCC3)C2)nc(C(F)(F)F)n1 (stereo not shown) [Compound 25, 2-(((6-(1-oxa-4-azaspiro[5.5]undecan-4-yl)-2-(trifluoromethyl)pyrimidin-4-yl)(methyl)amino)methyl)-4-(methylsulfonyl)thiomorpholine 1,1-dioxide] the minimal effective concentration was greater than 100000 µM.
CN(CC1CN(S(C)(=O)=O)C1)c1cc(N2CCCC3(CCCCC3)C2)nc(C(F)(F)F)n1 [Compound 13, N-methyl-N-((1-(methylsulfonyl)azetidin-3-yl)methyl)-6-(2-azaspiro[5.5]undecan-2-yl)-2-(trifluoromethyl)pyrimidin-4-amine] was tested, and the minimal effective concentration was less than 10000 µM.
CN(CC1CN(S(C)(=O)=O)CCO1)c1cc(N2CC3CCC(C2)O3)nc(C(F)(F)F)n1 (stereo not shown) [Compound 17, 6-(8-oxa-3-azabicyclo[3.2.1]octan-3-yl)-N-methyl-N-((4-(methylsulfonyl)morpholin-2-yl)methyl)-2-(trifluoromethyl)pyrimidin-4-amine] gave a minimal effective concentration greater than 100000 µM.
CN(CCN1CCCS1(=O)=O)c1cc(N2CCCC3(CCCCC3)C2)nc(C(F)(F)F)n1 [Compound 11, 2-(2-((6-(2-azaspiro[5.5]undecan-2-yl)-2-(trifluoromethyl)pyrimidin-4-yl)(methyl)amino)ethyl)isothiazolidine 1,1-dioxide] was tested, and the minimal effective concentration was less than 30000 µM.
In the case of CN(CC1CN(S(C)(=O)=O)CCO1)c1cc(N2CCOC3(CCC(F)(F)CC3)C2)nc(C(F)(F)F)n1 (stereo not shown) [Compound 21, 6-(9,9-difluoro-1-oxa-4-azaspiro[5.5]undecan-4-yl)-N-methyl-N-((4-(methylsulfonyl)morpholin-2-yl)methyl)-2-(trifluoromethyl)pyrimidin-4-amine], the minimal effective concentration is reported as less than 10000 µM.
Work on CN(CC1CN(S(C)(=O)=O)CCC1(F)F)c1cc(N2CCOC3(CCCCC3)C2)nc(C(F)(F)F)n1 (stereo not shown) [Compound 24, N-((4,4-difluoro-1-(methylsulfonyl)piperidin-3-yl)methyl)-N-methyl-6-(1-oxa-4-azaspiro[5.5]undecan-4-yl)-2-(trifluoromethyl)pyrimidin-4-amine] yielded a minimal effective concentration of less than 10000 µM.
CS(=O)(=O)N1CC2(CC(Nc3cc(N4CCCC5(CCCCC5)C4)nc(C(F)(F)F)n3)C2)C1 [Compound 12, N-(6-(2-azaspiro[5.5]undecan-2-yl)-2-(trifluoromethyl)pyrimidin-4-yl)-2-(methylsulfonyl)-2-azaspiro[3.3]heptan-6-amine] showed a minimal effective concentration greater than 100000 µM.
Compound CN(C)S(=O)(=O)N1CC2(CN(c3cc(N4CCCC5(CCCCC5)C4)nc(C(F)(F)F)n3)C2)C1 [Compound 10, 6-(6-(2-azaspiro[5.5]undecan-2-yl)-2-(trifluoromethyl)pyrimidin-4-yl)-N,N-dimethyl-2,6-diazaspiro[3.3]heptane-2-sulfonamide] has a minimal effective concentration greater than 100000 µM.
Work on CN(Cc1ccc(S(C)(=O)=O)cc1)c1cc(N2CCCC3(CCCCC3)C2)nc(C(F)(F)F)n1 [Compound 6, N-methyl-N-(4-(methylsulfonyl)benzyl)-6-(2-azaspiro[5.5]undecan-2-yl)-2-(trifluoromethyl)pyrimidin-4-amine] yielded a minimal effective concentration greater than 100000 µM.
Compound CN(CC1CN(S(C)(=O)=O)CCS1(=O)=O)c1cc(N2CCS(=O)(=O)C3(CCCCC3)C2)nc(C(F)(F)F)n1 (stereo not shown) [Compound 29, 4-(6-(methyl((4-(methylsulfonyl)-1,1-dioxidothiomorpholin-2-yl)methyl)amino)-2-(trifluoromethyl)pyrimidin-4-yl)-1-thia-4-azaspiro[5.5]undecane 1,1-dioxide] has a minimal effective concentration of less than 30000 µM.
CS(=O)(=O)N1CCOC(CN(Cc2ccccc2)c2cc(N3CCOC4(CCCCC4)C3)nc(C(F)(F)F)n2)C1 (stereo not shown) [Compound 19, N-benzyl-N-((4-(methylsulfonyl)morpholin-2-yl)methyl)-6-(1-oxa-4-azaspiro[5.5]undecan-4-yl)-2-(trifluoromethyl)pyrimidin-4-amine] gave a minimal effective concentration greater than 100000 µM.
CN(CC1CN(S(C)(=O)=O)CCS1)c1cc(N2CCCC3(CCCCC3)C2)nc(C(F)(F)F)n1 (stereo not shown) [Compound 43, N-methyl-N-((4-(methylsulfonyl)thiomorpholin-2-yl)methyl)-6-(2-azaspiro[5.5]undecan-2-yl)-2-(trifluoromethyl)pyrimidin-4-amine] gave a minimal effective concentration greater than 100000 µM.
Compound CN(C[C@H]1CN(S(C)(=O)=O)CCO1)c1cc(N2CCCC3(CCCCC3)C2)nc(C(F)(F)F)n1 [Compound 1, (S)-N-methyl-N-((4-(methylsulfonyl)morpholin-2-yl)methyl)-6-(2-azaspiro[5.5]undecan-2-yl)-2-(trifluoromethyl)pyrimidin-4-amine] has a minimal effective concentration of less than 10000 µM.
With CN(CC1CN(S(C)(=O)=O)CCC1(F)F)c1cc(N2CCC(F)(F)C3(CCCCC3)C2)nc(C(F)(F)F)n1 (stereo not shown) [Compound 22, N-((4,4-difluoro-1-(methylsulfonyl)piperidin-3-yl)methyl)-6-(5,5-difluoro-2-azaspiro[5.5]undecan-2-yl)-N-methyl-2-(trifluoromethyl)pyrimidin-4-amine] the minimal effective concentration was greater than 100000 µM.
In the case of CN(CC1CN(S(C)(=O)=O)CCCO1)c1cc(N2CCCC3(CCCCC3)C2)nc(C(F)(F)F)n1 (stereo not shown) [Compound 35, N-methyl-N-((4-(methylsulfonyl)-1,4-oxazepan-2-yl)methyl)-6-(2-azaspiro[5.5]undecan-2-yl)-2-(trifluoromethyl)pyrimidin-4-amine], the minimal effective concentration is reported as less than 10000 µM.
In the case of CN(CC1CN(S(C)(=O)=O)CCO1)c1cc(N2CC3CC(C2)O3)nc(C(F)(F)F)n1 (stereo not shown) [Compound 18, 6-(6-oxa-3-azabicyclo[3.1.1]heptan-3-yl)-N-methyl-N-((4-(methylsulfonyl)morpholin-2-yl)methyl)-2-(trifluoromethyl)pyrimidin-4-amine], the minimal effective concentration is reported as greater than 100000 µM.
For CCN(CC1CN(S(C)(=O)=O)CCO1)c1cc(N2CCCC3(CCCCC3)C2)nc(C(F)(F)F)n1 (stereo not shown) [Compound 38, N-ethyl-N-((4-(methylsulfonyl)morpholin-2-yl)methyl)-6-(2-azaspiro[5.5]undecan-2-yl)-2-(trifluoromethyl)pyrimidin-4-amine], the minimal effective concentration was less than 30000 µM.
Work on CN(CC1CN(S(=O)(=O)C2CC2)CCO1)c1cc(N2CCOC3(CCCCC3)C2)nc(C(F)(F)F)n1 (stereo not shown) [Compound 32, N-((4-(cyclopropylsulfonyl)morpholin-2-yl)methyl)-N-methyl-6-(1-oxa-4-azaspiro[5.5]undecan-4-yl)-2-(trifluoromethyl)pyrimidin-4-amine] yielded a minimal effective concentration of less than 10000 µM.
Work on CN(CC1CN(S(C)(=O)=O)CCO1)c1cc(N2CCS(=O)(=O)C3(CCCCC3)C2)nc(C(F)(F)F)n1 (stereo not shown) [Compound 27, 4-(6-(methyl((4-(methylsulfonyl)morpholin-2-yl)methyl)amino)-2-(trifluoromethyl)pyrimidin-4-yl)-1-thia-4-azaspiro[5.5]undecane 1,1-dioxide] yielded a minimal effective concentration of less than 30000 µM.
In the case of CCN(CC1CN(S(C)(=O)=O)CCO1)c1cc(N2CCOC3(CCCCC3)C2)nc(C(F)(F)F)n1 (stereo not shown) [Compound 20, N-ethyl-N-((4-(methylsulfonyl)morpholin-2-yl)methyl)-6-(1-oxa-4-azaspiro[5.5]undecan-4-yl)-2-(trifluoromethyl)pyrimidin-4-amine], the minimal effective concentration is reported as less than 10000 µM.
With CN(CC1CN(S(C)(=O)=O)CCS1)c1cc(N2CCOC3(CCCCC3)C2)nc(C(F)(F)F)n1 (stereo not shown) [Compound 26, N-methyl-N-((4-(methylsulfonyl)thiomorpholin-2-yl)methyl)-6-(1-oxa-4-azaspiro[5.5]undecan-4-yl)-2-(trifluoromethyl)pyrimidin-4-amine] the minimal effective concentration was less than 30000 µM.
Compound CN(CC1CN(S(C)(=O)=O)CCO1)c1cc(N2CCOC3(CCCC3)C2)nc(C(F)(F)F)n1 (stereo not shown) [Compound 16, N-methyl-N-((4-(methylsulfonyl)morpholin-2-yl)methyl)-6-(6-oxa-9-azaspiro[4.5]decan-9-yl)-2-(trifluoromethyl)pyrimidin-4-amine] has a minimal effective concentration of less than 30000 µM.
Compound CN(CC1CCN(S(C)(=O)=O)C1)c1cc(N2CCCC3(CCCCC3)C2)nc(C(F)(F)F)n1 (stereo not shown) [Compound 9, N-methyl-N-((1-(methylsulfonyl)pyrrolidin-3-yl)methyl)-6-(2-azaspiro[5.5]undecan-2-yl)-2-(trifluoromethyl)pyrimidin-4-amine] has a minimal effective concentration of less than 30000 µM.
CN(C)CCN(CC1CN(S(C)(=O)=O)CCO1)c1cc(N2CCCC3(CCCCC3)C2)nc(C(F)(F)F)n1 (stereo not shown) [Compound 39, N1-(6-(2-azaspiro[5.5]undecan-2-yl)-2-(trifluoromethyl)pyrimidin-4-yl)-N2,N2-dimethyl-N1-((4-(methylsulfonyl)morpholin-2-yl)methyl)ethane-1,2-diamine] was tested, and the minimal effective concentration was less than 10000 µM.
CN(CCOc1ccccc1)c1cc(N2CCCC3(CCCCC3)C2)nc(C(F)(F)F)n1 [Compound 8, N-methyl-N-(2-phenoxyethyl)-6-(2-azaspiro[5.5]undecan-2-yl)-2-(trifluoromethyl)pyrimidin-4-amine] was tested, and the minimal effective concentration was greater than 100000 µM.
